# Source: patent publication US10082506B2 (Wisconsin Alumni Research Foundation, priority 2014, dated 2018)
# Read-outs that look alike come from different tables or passages of the source.
# Columns and labels:
# hIntL-1 [1] = target: T1, hIntL-1 (Homo sapiens, UniProt Q8WWA0); experiment: hIntL-1 carbohydrate binding ELISA-like assay (immobilized biotinylated carbohydrates); parameters: made in house; host or cells: HEK 293T (transient transfection, suspension); conditions: for hIntL-1 binding to immobilized carbohydrate in ELISA: immobilized carbohydrate-biotin ligand
# T1 sequence (Q8WWA0 19-313): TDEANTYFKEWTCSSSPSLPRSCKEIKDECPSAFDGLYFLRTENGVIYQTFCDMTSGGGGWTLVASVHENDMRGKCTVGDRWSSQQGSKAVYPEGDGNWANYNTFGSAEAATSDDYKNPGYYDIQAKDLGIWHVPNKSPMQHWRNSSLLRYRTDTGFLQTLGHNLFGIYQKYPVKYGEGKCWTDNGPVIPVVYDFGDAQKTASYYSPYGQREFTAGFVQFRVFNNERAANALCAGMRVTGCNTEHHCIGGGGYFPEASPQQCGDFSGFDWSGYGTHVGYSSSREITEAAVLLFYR
# Description: hIntL-1 Carbohydrate Binding ELISA-like Assay. To fabricate carbohydrate-displaying surfaces, 0.5 μg of streptavidin (Prozyme, cat. no. SA20) was adsorbed onto a Maxisorp (Nunc) flat bottom 96 well plate in PBS. Wells were washed with PBS and then coated with 5 μM of carbohydrate-biotin ligand in PBS for 1 hour at 22° C. Wells were blocked with bovine serum albumin (BSA) in ELISA buffer (20 mM HEPES (7.4) 150 mM NaCl, 10 mM CaCl2, and 0.1% tween-20). Samples containing hIntL-1 were prepared by serial dilution into ELISA buffer+0.1% BSA and added to wells for 2 hours at 22° C. Wells were washed four times with ELISA buffer. Bound hIntL-1 was detected using 0.75 μg/mL of a sheep IgG hIntL-1 antibody (R&D Systems, cat. no. AF4254) in ELISA buffer+0.1% BSA for 2 hours at 22° C. Wells were washed with ELISA buffer. A donkey anti-sheep IgG horseradish peroxidase (HRP) conjugate (Jackson ImmunoResearch Laboratories) was added at a 1:5,000 dilution in ELISA buffer+0.1% BSA for 1 hour at 22° C. Wells were washed and hIntL-1 was detected colorimetrically with addition of 1-Step Ultra TMB-ELISA (Pierce). Once sufficient signal was achieved (typically <2 min.), the reaction was quenched with addition of equal volume 2 M H2SO4. Plates were read at 450 nm on an EL×800 plate reader (Bio-Tek). […] Data were analyzed on Prism6 (GraphPad). Data were fit to the one site-specific binding equation.
# hIntL-1 [2] = target: T1, hIntL-1; experiment: hIntL-1 on CFG mammalian glycan array v5.1; type: binding; parameters: made in house; host or cells: HEK 293T (transient transfection, suspension); conditions: hIntL-1 50 and 200 μg/ml
# [3] = system: UDP-galactopyranose mutase (UGM); conditions: UGM from the species listed; cited from earlier work
# hIntL-1 [4] = target: T1, hIntL-1; experiment: hIntL-1 surface plasmon resonance on immobilized carbohydrates; type: binding; parameters: made in house; host or cells: HEK 293T (transient transfection, suspension); conditions: concentrations up to 6-fold higher than the β-Galf KD
# Description: hIntL-1 Surface Plasmon Resonance (SPR). All hIntL-1 SPR was performed on a ProteOn XPR36 (Bio-Rad) at the University of Wisconsin-Madison Department of Biochemistry Biophysics Instrumentation Facility (BIF). To measure hIntL-1 binding, ProteOn NLC sensor chips (Bio-Rad) (NeutrAvidin coated chips) were used to capture carbohydrate-biotin ligand. All experiments presented here were conducted at surface saturated levels of ligand, ˜200 RU. In all experiments, captured biotin served as a control. Samples containing purified hIntL-1 were prepared by serial dilution into hIntL-1 SPR running buffer (20 mM HEPES (7.4) 150 mM NaCl, 1 mM CaCl2, and 0.005% tween-20). Surfaces were regenerated with short injections of 10 mM HCl. All data was interspot corrected and processed using the Bio-Rad ProteOn software package.
# hIntL-1 [5] = target: T1, hIntL-1; conditions: reported by Tsuji et al., 2001; read-out: apparent KD / apparent affinity for hIntL-1; cited from earlier work
# Strep-hIntL-1 = target: T2, Strep-hIntL-1 (Homo sapiens, UniProt Q8WWA0); experiment: Strep-hIntL-1 binding to S. pneumoniae serotypes; conditions: detected with anti-Strep-tag:Oyster 642 nm antibody
# T2 construct: made in house; host or cells: HEK 293T (transient transfection)
# T2 sequence (Q8WWA0 19-313): as above
# Strep-mIntL-1 = Strep-mIntL-1 (Mus musculus, UniProt O88310); conditions: SPR, referenced to biotin channel
# Strep-mIntL-1, sequence (O88310 19-298): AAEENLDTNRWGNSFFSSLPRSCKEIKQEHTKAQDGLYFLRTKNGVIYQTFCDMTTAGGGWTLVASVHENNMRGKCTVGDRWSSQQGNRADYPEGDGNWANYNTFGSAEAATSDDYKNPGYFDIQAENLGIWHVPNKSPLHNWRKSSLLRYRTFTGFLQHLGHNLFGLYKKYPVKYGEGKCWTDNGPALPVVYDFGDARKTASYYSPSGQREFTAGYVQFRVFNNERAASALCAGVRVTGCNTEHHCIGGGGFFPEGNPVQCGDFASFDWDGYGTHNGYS
smiles,measurement,setting,value
"CC(=O)N[C@H]1[C@H]([C@H](O)[C@H](O)CO)OC(O)(C(=O)O)C[C@@H]1O (stereo partly drawn) [Neu5Ac, N-acetyl-neuraminic acid]",hIntL-1 binding to immobilized carbohydrate in ELISA,hIntL-1 [1],lack of affinity
same,hIntL-1 binding to immobilized carbohydrate in ELISA,hIntL-1 [1]; listed as α-Neu5Ac,does not bind
same,hIntL-1 binding signal on CFG mammalian glycan array,hIntL-1 [2],lack of affinity
"O=C(O)C(Cc1ccc(I)cc1)Nc1nc(-c2ccc(Cl)c(Cl)c2)cs1 (stereo not drawn) [3-(4-iodophenyl)-2-[4-(3,4-dichlorophenyl)-thiazol-2-ylamino]-propionic acid]",inhibition of UGM,[3],active against UGM
"OC[C@H]1O[C@@H](O)[C@H](O)[C@@H](O)[C@H]1O [β-Galp, β-galactopyranose]",hIntL-1 binding to immobilized carbohydrate in SPR,hIntL-1 [4],small response
O=C(CCCCC1SCC2NC(=O)NC21)NCCOCCOCCOCCOCc1cn(CCCCCCCCCC=CCOC2OC(C(O)CO)C(O)C2O)nn1 (stereo not drawn),Kd,"hIntL-1 [1]; disulfide-linked trimer, immobilized biotinylated carbohydrate, read-out: apparent avidity (apparent Kd) of trimeric hIntL-1 for immobilized ligand",85 ± 14 nM
same,hIntL-1 binding to immobilized carbohydrate in SPR,hIntL-1 [4],robust binding
Cc1c(C(=O)c2ccc(Cl)cc2)c(O)nn1-c1ccc(Cl)cc1 [4-chlorophenyl)-[1-(4-chlorophenyl)-3-hydroxy-5-methyl-1H-pyrazol-4-yl]-methanone],inhibition of UGM,[3],inhibits UGM
CC(=O)N[C@H]1[C@H](OC[C@H]2OC(O)[C@H](NC(C)=O)[C@@H](O)[C@H]2O)O[C@H](CO)[C@H](O)[C@@H]1O (stereo partly drawn) [GalNAcβ1-6GalNAc],hIntL-1 binding signal on CFG mammalian glycan array,hIntL-1 [2],highest signal
O=C[C@H](O)[C@H](O)[C@H](O)CO [D-ribose],Kd,hIntL-1 [5],< 5 mM
O=C(O)CN(CCN(CC(=O)O)CC(=O)O)CC(=O)O [EDTA],effect of additive on hIntL-1 binding to S. pneumoniae,Strep-hIntL-1,abrogate binding
same,effect of additive on mIntL-1 carbohydrate binding,Strep-mIntL-1,prevents carbohydrate binding
same,effect of additive on hIntL-1 binding to β-Galf,"hIntL-1 [1]; hIntL-1 conditioned HEK culture media, 25 mM EDTA",completely abolished binding
CC(=O)N[C@H]1C(O)O[C@H](CO)[C@@H](O[C@@H]2O[C@@H]([C@H](O)CO)[C@H](O)[C@H]2O)[C@@H]1O (stereo partly drawn) [2-acetamido-2-deoxy-4-O-beta-D-galactofuranosyl-D-glucopyranose],Kd,hIntL-1 [5],9 mM
OCC(O)CO [glycerol],effect of additive on hIntL-1 binding to S. pneumoniae,Strep-hIntL-1,abrogate binding
